Each structure is given as a SMILES string.

For this experiment, the target named is GST-tagged truncated human mutant G2019S LRRK2 (Homo sapiens, UniProt Q5S007, G2019S). The experiment in a line: LRRK2 G2019S Km ATP LanthaScreen assay. In kind it is biochemical. The following applies: 134 μM ATP (Km ATP), LRRKtide substrate, mean IC50 values; read-out: LRRK2 pIC50 (converted). An outline of the steps:
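Compound preincubated 15 min at room temperature with enzyme in pH 8.5 Tris buffer (10 mM MgCl2). Then a 90 min reaction at ambient temperature with 134 μM (Km) ATP and fluorescein-LRRKtide. EDTA stop, Tb anti-phospho antibody TR-FRET; […]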
For `C[C@]1(O)[C@@H]2CC[C@H]1CN(c1cc3nc(Nc4cnn(C56CC(C5)C6)c4Cl)ncc3cc1Cl)C2` [Ex-3.38, (8-syn)-3-(2-{[1-(bicyclo[1.1.1]pentan-1-yl)-5-chloro-1H-pyrazol-4-yl]amino}-6-chloroquinazolin-7-yl)-8-methyl-3-azabicyclo[3.2.1]octan-8-ol], the IC50 was 6.62 nM. Next, `Clc1cc2cnc(Nc3cnn(C45CC(C4)C5)c3Cl)nc2cc1N1CCC2(CCOC2)CC1` [Ex-3.39, N-[1-(bicyclo[1.1.1]pentan-1-yl)-5-chloro-1H-pyrazol-4-yl]-6-chloro-7-(2-oxa-8-azaspiro[4.5]decan-8-yl) quinazolin-2-amine]: 3.23 nM; `Clc1cc2cnc(Nc3cnn(C45CC(C4)C5)c3Cl)nc2cc1N1CCC2(CCCO2)CC1` [Ex-3.40, N-[1-(bicyclo[1.1.1]pentan-1-yl)-5-chloro-1H-pyrazol-4-yl]-6-chloro-7-(1-oxa-8-azaspiro[4.5]decan-8-yl) quinazolin-2-amine]: 9.76 nM. Turning to `CNc1cc2nc(Nc3cnn(C4CCN(C5(C)COC5)CC4)c3Cl)ncc2cc1Cl` [Ex-3.44, 6-chloro-N~2~-{5-chloro-1-[1-(3-methyloxetan-3-yl)piperidin-4-yl]-1H-pyrazol-4-yl}-N~7~-methyl-quinazoline-2,7-diamine], the IC50 is 19.5 nM. Next, `CCNc1cc2nc(Nc3cnn(C4CCN(C5(C)COC5)CC4)c3Cl)ncc2cc1Cl` [Ex-3.45, 6-chloro-N~2~-{5-chloro-1-[1-(3-methyloxetan-3-yl)piperidin-4-yl]-1H-pyrazol-4-yl}-N~7~- ethylquinazoline-2,7-diamine]: 23.5 nM.

For the compound `CC(C)Nc1cc2nc(Nc3cnn(C4CCN(C5(C)COC5)CC4)c3Cl)ncc2cc1Cl` [Ex-3.46], the IC50 is 15 nM.

On to `CC(C)Nc1ccc2cnc(Nc3cnn(C4CCN(C5(C)COC5)CC4)c3Cl)nc2c1Cl` [Ex-3.53, 8-chloro-N~2~-{5-chloro-1-[1-(3-methyloxetan-3-yl)piperidin-4-yl]-1H-pyrazol-4-yl}-N~7~- (propan-2-yl)quinazoline-2,7-diamine], for which the IC50 is 6.88 nM. Next, `CC1(O)CCN(c2cc3nc(Nc4cnn(C5CC5)c4Cl)ncc3cc2C#N)CC1` [Ex-3.54, 2-[(5-chloro-1-cyclopropyl-1H-pyrazol-4-yl)amino]-7-(4-hydroxy-4-methylpiperidin-1-yl)quinazoline-6-carbonitrile]: 8.43 nM; `Cc1cc2cnc(Nc3cnn(C4CC4)c3Cl)nc2cc1N1CCC(C)(O)CC1` [Ex-3.55, 1-{2-[(5-chloro-1-cyclopropyl-1H-pyrazol-4-yl)amino]-6-methylquinazolin-7-yl}-4-methylpiperidin-4-ol]: 12.1 nM.

As to `Cc1c(N2CCN(C3(C)COC3)CC2)c(Cl)cc2cnc(Nc3cnn(CC(F)(F)F)c3)nc12` [Ex-4.3, 6-Chloro-8-methyl-7-(4-(3-methyloxetan-3-yl)piperazin-1-yl)-N-(1-(2,2,2-trifluoroethyl)-1H-pyrazol-4-yl)quinazolin-2-amine], the IC50 is 3.36 nM. The value for `O=C1C2CCC(C2)N1c1ccc2cnc(Nc3ccn(CC(F)(F)F)n3)nc2c1` (centres unmarked) [Ex-4.8, 2-(2-{[1-(2,2,2-trifluoroethyl)-1H-pyrazol-3-yl]amino}quinazolin-7-yl)-2-azabicyclo[2.2.1]heptan-3-one] was 8.95 nM.

In the case of `CC(C)Nc1ccc2cnc(Nc3cnn(C4CCN(C5(C)COC5)CC4)c3)nc2c1` [Ex-4.9, N~2~-{1-[1-(3-methyloxetan-3-yl)piperidin-4-yl]-1H-pyrazol-4-yl}-N~7~-(propan-2-yl)quinazoline-2,7-diamine], the IC50 was 9.16 nM. With `CC1CCN1c1cc2nc(Nc3cnn(C4CN(CC(C)(C)O)C4)c3)ncc2cc1Cl` (centres unmarked) [Ex-4.10, 1-[3-(4-{[6-chloro-7-(2-methylazetidin-1-yl)quinazolin-2-yl]amino}-1H-pyrazol-1-yl)azetidin-1-yl]-2-methylpropan-2-ol], the IC50 was 34.3 nM. The value for `CC1CCN1c1cc2nc(Nc3cnn(C4CCN(C5(C)COC5)CC4)c3)ncc2cc1Cl` (centres unmarked) [Ex-4.11, 6-chloro-7-(2-methylazetidin-1-yl)-N-{1-[1-(3-methyloxetan-3-yl)piperidin-4-yl]-1H-pyrazol-4-yl}quinazolin-2-amine] was 35.3 nM; that for `Cc1c(Nc2ncc3cc(Cl)c(N4CCN(C5(C)COC5)CC4)cc3n2)cnn1CCF` [Ex-4.12, 6-chloro-N-[1-(2-fluoroethyl)-5-methyl-1H-pyrazol-4-yl]-7-[4-(3-methyloxetan-3-yl)piperazin-1-yl]quinazolin-2-amine] was 0.625 nM. For `CCn1ncc(Nc2ncc3cc(Cl)c(N4CCN(C5(C)COC5)CC4)cc3n2)c1C` [Ex-4.13, 6-chloro-N-(1-ethyl-5-methyl-1H-pyrazol-4-yl)-7-[4-(3-methyloxetan-3-yl)piperazin-1-yl]quinazolin-2-amine], the IC50 is 6.83 nM. The value for `Cc1c(Nc2ncc3cc(Cl)c(N4CCN(C5COC5)[C@@H](C)C4)cc3n2)cnn1CCF` [Ex-4.14, 6-chloro-N-[1-(2-fluoroethyl)-5-methyl-1H-pyrazol-4-yl]-7-[(3S)-3-methyl-4-(oxetan-3-yl)piperazin-1-yl]quinazolin-2-amine] was 0.969 nM; that for `Cn1ncc(Nc2ncc3cc(Cl)c(N4CCN(C5(C)COC5)CC4)cc3n2)c1C(F)(F)F` [Ex-4.15, 6-chloro-7-[4-(3-methyloxetan-3-yl)piperazin-1-yl]-N-[1-methyl-5-(trifluoromethyl)-1H-pyrazol-4-yl]quinazolin-2-amine] was 19.3 nM. The value for `CC1(N2CCN(c3cc4nc(Nc5cnn(C6(C)CC6)c5)ncc4cc3Cl)CC2)COC1` [Ex-4.16, 6-chloro-N-[1-(1-methylcyclopropyl)-1H-pyrazol-4-yl]-7-[4-(3-methyloxetan-3-yl)piperazin-1-yl]quinazolin-2-amine] was 1.12 nM; that for `CC1(N2CCN(c3cc4nc(Nc5cnn(C6CC6)c5Cl)ncc4cc3Cl)CC2)COC1` [Ex-4.17, 6-chloro-N-(5-chloro-1-cyclopropyl-1H-pyrazol-4-yl)-7-[4-(3-methyloxetan-3-yl)piperazin-1-yl]quinazolin-2-amine] was 2.32 nM. The value for `CC1(N2CCN(c3cc4nc(Nc5cnn(C6CC6)c5)ncc4cc3Cl)CC2)COC1` [Ex-4.18, 6-chloro-N-(1-cyclopropyl-1H-pyrazol-4-yl)-7-[4-(3-methyloxetan-3-yl)piperazin-1-yl]quinazolin-2-amine] was 2.39 nM.

As for `CC1(N2CCN(c3cc4nc(Nc5cnn(CC(F)(F)F)c5)ncc4cc3Cl)CC2)COC1` [Ex-4.19, 6-chloro-7-[4-(3-methyloxetan-3-yl)piperazin-1-yl]-N-[1-(2,2,2-trifluoroethyl)-1H-pyrazol-4-yl]quinazolin-2-amine], the IC50 is 3.03 nM. The value for `CC1(N2CCN(c3cc4nc(Nc5cnn6c5CCC6)ncc4cc3Cl)CC2)COC1` [Ex-4.20, 6-chloro-N-(5,6-dihydro-4H-pyrrolo[1,2-b]pyrazol-3-yl)-7-[4-(3-methyloxetan-3-yl)piperazin-1-yl]quinazolin-2-amine] was 2.59 nM; that for `Cn1cc(Nc2ncc3cc(Cl)c(N4CCN(C5(C)COC5)CC4)cc3n2)c(C(F)(F)F)n1` [Ex-4.21, 6-chloro-7-[4-(3-methyloxetan-3-yl)piperazin-1-yl]-N-[1-methyl-3-(trifluoromethyl)-1H-pyrazol-4-yl]quinazolin-2-amine] was 36.8 nM.

Regarding `CC1(N2CCN(c3cc4nc(Nc5cnn(C6(C)CC6)c5Cl)ncc4cc3Cl)CC2)COC1` [Ex-4.22, 6-chloro-N-[5-chloro-1-(1-methylcyclopropyl)-1H-pyrazol-4-yl]-7-[4-(3-methyloxetan-3-yl)piperazin-1-yl]quinazolin-2-amine], the IC50 was 0.625 nM. `CC1(O)CC2(CN(c3cc4nc(Nc5cnn(C6CC6)c5)ncc4cc3Cl)C2)C1` [Ex-4.23, 2-{6-chloro-2-[(1-cyclopropyl-1H-pyrazol-4-yl)amino]quinazolin-7-yl}-6-methyl-2-azaspiro[3.3]heptan-6-ol]: the IC50 is 2.47 nM. Next, `CC1CCC12CN(c1cc3nc(Nc4cnn(C5(C)CC5)c4Cl)ncc3cc1Cl)C2` (centres unmarked) [Ex-4.24, 6-chloro-N-[5-chloro-1-(1-methylcyclopropyl)-1H-pyrazol-4-yl]-7-(5-methyl-2-azaspiro[3.3]heptan-2-yl)quinazolin-2-amine]: 218 nM. Regarding `CC1(O)CC2(CN(c3cc4nc(Nc5cnn(C6(C)CC6)c5Cl)ncc4cc3Cl)C2)C1` [Ex-4.27, 2-(6-chloro-2-{[5-chloro-1-(1-methylcyclopropyl)-1H-pyrazol-4-yl]amino}quinazolin-7-yl)-6-methyl-2-azaspiro[3.3]heptan-6-ol], the IC50 is 1.6 nM.

On to `CC1(O)CC2(CN(c3cc4nc(Nc5cnn(C6CC6)c5Cl)ncc4cc3Cl)C2)C1` [Ex-4.28, 2-{6-chloro-2-[(5-chloro-1-cyclopropyl-1H-pyrazol-4-yl)amino]quinazolin-7-yl}-6-methyl-2-azaspiro[3.3]heptan-6-ol], for which the IC50 is 1.05 nM.

For `CCC1(N2CCN(c3cc4nc(Nc5cnn(C6(C)CC6)c5Cl)ncc4cc3Cl)CC2)COC1` [Ex-4.29, 6-chloro-N-[5-chloro-1-(1-methylcyclopropyl)-1H-pyrazol-4-yl]-7-[4-(3-ethyloxetan-3-yl)piperazin-1-yl]quinazolin-2-amine], the IC50 was 5.28 nM.

As to `CCC1(N2CCN(c3cc4nc(Nc5cnn(C6CC6)c5Cl)ncc4cc3Cl)CC2)COC1` [Ex-4.30, 6-chloro-N-(5-chloro-1-cyclopropyl-1H-pyrazol-4-yl)-7-[4-(3-ethyloxetan-3-yl)piperazin-1-yl]quinazolin-2-amine], the IC50 was 15.7 nM. Next, `CC1(N2CCN(c3cc4nc(Nc5cnn(C(C)(C)C)c5Cl)ncc4cc3Cl)CC2)COC1` [Ex-4.31, N-(1-tert-butyl-5-chloro-1H-pyrazol-4-yl)-6-chloro-7-[4-(3-methyloxetan-3-yl)piperazin-1-yl]quinazolin-2-amine]: 1.01 nM.
